System: NIH3T3^MEN2A(C634R) cells
Assay: Reversion of transformed morphologic phenotype of NIH3T3 MEN2A(C634R) transfectants
Format: cell-based, murine
Details: 6 μM, 24 h, phase-contrast microscope
Experimental: FIG. 1. Effects of Cpd 1 on NIH3T3^MEN2A(C634R) transfectants expressing exogenous RET/MEN2A(C634R). […] Cells were exposed to 6 μM Cpd1 for 24 h and then photographed under a phase-contrast microscope (original magnification ×100). B) Antiproliferative effect. NIH3T3^MEN2A(C634R) cells and the parental NIH3T3 cells were treated with increasing concentrations of the drug for 72 h and then counted with a Coulter Counter. […] C) Inhibition of Ret/MEN2A(C634R) autophosphorylation and expression. Cells were treated with solvent (−) or 10 μM Cpd1 (+), for the indicated times. Whole cell-lysates were prepared and subjected to SDS-PAGE and Western blotting with anti-pTyr antibody. After stripping, the filter was reblotted with anti-Ret antibody. Arrows indicate the partial and fully glycosilated forms of the Ret/MEN2A receptor.
The following human medullary thyroid carcinoma (MTC) cell lines were used in this study. The TT cell line derived from a MEN2A-associated MTC characterized by expression of the RET oncogene carrying the mutation C634W. The MZ-CRC-1 cell line derived from MEN2B-associated MTC characterized by expression of the RET oncogene carrying the mutation M918T. […]

In the case of `COc1cc2c(cc1OC)/C(=C\c1ccc(O)cc1)C(=O)N2` [Cpd 1, (E)-1,3-dihydro-5,6-dimethoxy-3-[(4-hydroxyphenyl)methylene]-2H-indol-2-one], the Transformed morphologic phenotype is reported as “Reversion of the transformed morphologic phenotype”.

From patent publication US20090130229A1, “Antitumor uses of compound” (Cell Therapeutics, Inc., priority 2002, published 2009)
